The source of these data is patent US12053506B2, “Romo1-derived antimicrobial peptides and variants thereof” (priority 2019, dated 2024).

No end group written: not given here. Where only a bound is given, the exact number is not on record here.

Data set [1] deals with Pseudomonas aeruginosa (ATCC 27853). In kind it is cell-based. Particulars: for MBC value (μg/ml) against Pseudomonas aeruginosa: ATCC 27853, 1 h. Put shortly: (§1)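 Bacteria grown in 3% TSB at 37° C, diluted in 10 mM sodium phosphate/1% TSB to 1×10^5 CFU/ml in wells, exposed to peptides (0–300 μg/ml) for 1 h at 37° C. Mixtures plated on TS agar for 18 h at 37° C; MBC is the lowest concentration giving no colonies.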

Data set [2] relates to Staphylococcus aureus (ATCC 29213). In kind it is cell-based. Particulars: for MBC value (μg/ml) against Staphylococcus aureus: ATCC 29213, 1 h. The method in brief:
as §1

For data set [3], the system named is Pseudomonas aeruginosa and Staphylococcus aureus. In words: MBC assay, antibacterial activity of Romo1-derived peptides compared in words. It is filed as cell-based. The following applies: Table 1 peptides. The source says: Romo1 protein comprises two α-helices. The present inventors synthesized the α-helix 2 region having both hydrophilicity and hydrophobicity, and evaluated the antibacterial activity thereof using minimum bactericidal concentration (MBC) assay. The α-helix 2 region was named KU-5279 (the 52-79 amino acid region of Romo1 protein). Then, in order to identify peptides that are beneficial for human application and have excellent antibacterial activity, the present inventors synthesized several peptides comprising a sequence of contiguous amino acids starting at any amino acid selected from the 52-79 amino acid region of Romo1 protein, and comparatively evaluated the antibacterial activities of the peptides by minimum bactericidal concentration assay (See Table 1 below for information on each peptide). Evaluation of the antibacterial activity of each peptide by minimum bactericidal concentration assay was specifically performed as follows. First, each of Pseudomonas aeruginosa (ATCC 27853) and Staphylococcus aureus (ATCC 29213) was cultured in 3% (w/v) TSB (Tryptic Soy Broth) liquid medium at 37° C. and 200 rpm for 4 hours, and then further cultured under the same conditions for 3 hours to a concentration of 5×10^6 CFU/ml. […]

Data set [4] concerns methicillin-resistant Staphylococcus aureus (ATCC 33591). The following applies: ATCC 33591, 4 h.
Data set [5] has as its system multidrug-resistant Pseudomonas aeruginosa. The following applies: 4 h. How it is done: First, each of Pseudomonas aeruginosa (ATCC 27853) and Staphylococcus aureus (ATCC 29213) was cultured in 3% (w/v) TSB (Tryptic Soy Broth) liquid medium at 37° C. and 200 rpm for 4 hours, and then further cultured under the same conditions for 3 hours to a concentration of 5×10^6 CFU/ml. Strain solutions were prepared by diluting each of the further cultured strains with SP (sodium phosphate; 10 mM sodium phosphate, 1% TSB) buffer to a final concentration of 2×10^5 CFU/ml.
Then, each peptide at varying concentrations (0 μg/ml to 300 μg/ml) was dispensed into each well of a 96-well microplate, and 100 μl (1×10^5 CFU/ml) of each of the prepared strain solutions was added thereto, mixed therewith, and allowed to react with the peptide in an incubator at 37° C. for 1 hour.
In addition, 30 g/L of TS (tryptic soy) and 15 g/L of agar were dissolved in distilled water and sterilized, and then 25 ml of the solution was poured onto a 100 mm round plate and solidified at room temperature for one day or more, thereby preparing a TS agar plate. 10 μl of each reaction solution of the peptide and the strain was plated on the TS agar plate at a constant size, and incubated in an incubator at 37° C. for 18 hours, and then colony formation on the plate was checked.
(§2) Specifically, each type of bacteria was cultured in 3% (w/v) TSB (Tryptic Soy Broth) liquid medium at 37° C. and 200 rpm for 4 hours, and then further cultured under the same conditions for 3 hours to a concentration of 5×10^6 CFU/ml. Strain solutions were prepared by diluting each of the […] of 2×10^5 CFU/ml.
(§3) Then, the KU-5878 peptide at varying concentrations (0 μg/ml to 300 μg/ml) was dispensed into each well of a 96-well microplate, and 100 μl (1×10^5 CFU/ml) of each of the prepared strain solutions was added thereto, mixed therewith, and allowed to react with the peptide in an incubator at 37° C. for 1 hour.
(§4) In addition, 10 μl of each reaction solution of the peptide and the strain was plated on the TS agar plate at a constant size, and incubated in an incubator at 37° C. for 18 hours, and then colony formation on the plate was checked.
(§5) Meanwhile, the multidrug-resistant Pseudomonas aeruginosa, multidrug-resistant Acinetobacter and multidrug-resistant Klebsiella in Table 2 below were bacteria isolated from patients at Korea University Anam Hospital. […] Then, these bacteria were used in the experiment.

Data set [6] has as its system Streptococcus pneumoniae (NCCP 14585). It is filed as cell-based. Particulars: NCCP 14585, 4 h. As to the method: (§6) The minimum bactericidal concentration assay was the same as the method used in Example 1.
as §2, §3
(§7) In addition, 10 μl of each reaction solution of the peptide and the strain was plated on the TS agar plate at a constant size, and incubated in an incubator at 37° C. for 18 hours, and then colony formation on the plate was checked. The minimum bactericidal concentration was defined as the minimum concentration of the peptide at which no colony was formed, and the experimental results are shown in Table 2 below.

In data set [7] the test system is Acinetobacter baumannii (ATCC 19606). In words: Minimum bactericidal concentration (MBC) assay. In kind it is cell-based. As to the method:
as §6, §2, §3, §7

Data set [8] relates to Bacillus subtilis (ATCC 6633). The data set can be described thus: Minimum bactericidal concentration (MBC) assay. It is filed as cell-based. How it is done: as §6, §2, §3, §7
In data set [9] the test system is Enterobacter aerogenes (ATCC 13048). In words: Minimum bactericidal concentration (MBC) assay. In kind it is cell-based. As to the method: as §6, §2, §3, §7
For data set [10], the system named is Enterococcus faecalis (ATCC 19433). In words: Minimum bactericidal concentration (MBC) assay. In kind it is cell-based. As to the method:
as §6, §2, §3, §7

Data set [11] has as its system Enterococcus faecium (ATCC 19434). The data set can be described thus: Minimum bactericidal concentration (MBC) assay. It is filed as cell-based. As to the method: as §6, §2, §3, §7
The test system of data set [12] is Escherichia coli (ATCC 25922). In words: Minimum bactericidal concentration (MBC) assay. In kind it is cell-based. How it is done:
as §6, §2, §3, §7

The subject of data set [13] is Klebsiella pneumoniae (ATCC 13883). The data set can be described thus: Minimum bactericidal concentration (MBC) assay. It is filed as cell-based. As to the method:
as §6, §2, §3, §7

Data set [14] concerns Streptomyces sindenensis (ATCC 12392). The data set can be described thus: Minimum bactericidal concentration (MBC) assay. It is filed as cell-based. How it is done:
as §6, §2, §3, §7

The subject of data set [15] is Multidrug-resistant A. baumannii. Particulars: multidrug-resistant, 4 h. As to the method:
as §6, §2, §3, §4, §5

The subject of data set [16] is Multidrug-resistant K. pneumoniae. The following applies: multidrug-resistant, 4 h. How it is done: as §6, §2, §3, §4, §5
For data set [17], the system named is Vancomycin-resistant E. faecium (NCCP 11522). In kind it is cell-based, Enterococcus faecium. Particulars: Vancomycin-resistant (NCCP 11522, 4 h). How it is done:
as §6, §2, §3, §7

Data set [18] relates to Vancomycin-resistant S. aureus (NCCP 15872). It is filed as cell-based, Staphylococcus aureus. The following applies: Vancomycin-resistant (NCCP 15872, 4 h). How it is done: as §6, §2, §3, §7
The subject of data set [19] is mouse red blood cells. It is filed as cell-based. As to the method: Red blood cells were diluted with PBS, centrifuged 3 times at 900 g for 10 minutes, and washed. 100 μl of the diluted red blood cell solution (10% v/v PBS) was dispensed into each well of a 96-well microplate, and KU-5878, KU-5878-K4, KU-5878-K4-D, melittin, magainin 2 or daptomycin was added to each well which was then filled with PBS to 200 μl, followed by reaction by incubation at 37° C. for 1 hour. Then, the supernatant of the reaction solution was separated, and the absorbance at a wavelength of 550 nm was measured using a spectrophotometer. As control, PBS and 0.1% Triton X-100 (Triton X-100) solution were used.
Based on the results of measurement of the absorbance, the degree of red blood cell destruction was calculated according to Equation 1 below, and the results of the calculation are shown in FIG. 6. The % intact RBC=100(%)−[(absorbance of peptide-treated red blood cell solution−absorbance of PBS-treated red blood cell solution)/(absorbance of Triton X-100-treated red blood cell solution−absorbance of PBS-treated red blood cell solution)×100(%)] [Equation 1]

Regarding “CLRIGMRGRELM [pCM12, reference compound]”, the “MBC value (μg/ml) against Pseudomonas aeruginosa” value in data set [1] is above 300 µg/mL. Moreover, the “MBC value (μg/ml) against Staphylococcus aureus” value in data set [2] is above 300 µg/mL. In data set [3], the “antibacterial activity by MBC assay, in words” value was “low bactericidal activity”.

Turning to KKMMKKGGKFGTFMAIGMGIR [KU-5878-K4], the “MBC (μg/ml) value against Pseudomonas aeruginosa” value in data set [1] (ATCC 27853) is 4 µg/mL. Moreover, the “MBC value (μg/ml) against Pseudomonas aeruginosa” value in data set [1] is 4 µg/mL. Also, the “MBC (μg/ml) value against Staphylococcus aureus” value in data set [2] (ATCC 29213) was found to be 3 µg/mL. In addition, in data set [2], the “MBC value (μg/ml) against Staphylococcus aureus” value worked out at 3 µg/mL. Moreover, the “MBC value (μg/ml) against methicillin-resistant Staphylococcus aureus” value in [4] is 5 µg/mL. Also, the “MBC value (μg/ml) against multidrug-resistant Pseudomonas aeruginosa” value in data set [5] was 5 µg/mL. Moreover, the “MBC value (μg/ml), Streptococcus pneumoniae” value in data set [6] was found to be 4 µg/mL. The “MBC value (μg/ml), Acinetobacter baumannii” value in data set [7] is 4 µg/mL. Moreover, the “MBC value (μg/ml), Bacillus subtilis” value in [8] amounted to 5 µg/mL. The “MBC value (μg/ml), Enterobacter aerogenes” value in data set [9] is 5 µg/mL. Besides, the “MBC value (μg/ml), Enterococcus faecalis” value in [10] is 5 µg/mL. Moreover, the “MBC value (μg/ml), Enterococcus faecium” value in data set [11] came to 5 µg/mL. The “MBC value (μg/ml), Escherichia coli” value in data set [12] came to 5 µg/mL. Further, the “MBC value (μg/ml), Klebsiella pneumoniae” value in [13] came out at 5 µg/mL. The “MBC value (μg/ml), Streptomyces sindenensis” value in data set [14] stood at 5 µg/mL. For the same sequence, the “MBC value (μg/ml), Multidrug-resistant A. baumannii” value in data set [15] came out at 4 µg/mL. Moreover, in [16], the “MBC value (μg/ml), Multidrug-resistant K. pneumoniae” value was 5 µg/mL. Moreover, the “MBC value (μg/ml), Vancomycin-resistant E. faecium” value in data set [17] was found to be 5 µg/mL. Further, in data set [18], the “MBC value (μg/ml), Vancomycin-resistant S. aureus” value amounted to 6 µg/mL. Also, the “hemolysis of red blood cells” value in data set [19] was “little hemolysis of red blood cells”.
